Measured values: patent US12486259B2, “FXR agonist having pyrazine structure, and preparation method and use” (JIANGSU TASLY DIYI PHARMACEUTICAL CO., LTD., priority 2020, dated 2025)
Values belong to the molecule of their own block, whether it stands above or below them.

Assays:
[1] = target: T1, GST-labeled recombinant human FXR protein (Homo sapiens, UniProt Q96RI1); assay: Agonistic activity on FXR receptor (GST-FXR / SRC-1 bead assay, protein level); type: biochemical; conditions: for EC50: 0.4 nM FXR, 30 nM SRC-1, protein level; for FXR agonistic activity at protein level (in words): judgement on Table 1 results
T1 construct: purchased Invitroren (so in the source)
T1 sequence (Q96RI1 262-486 limits assumed): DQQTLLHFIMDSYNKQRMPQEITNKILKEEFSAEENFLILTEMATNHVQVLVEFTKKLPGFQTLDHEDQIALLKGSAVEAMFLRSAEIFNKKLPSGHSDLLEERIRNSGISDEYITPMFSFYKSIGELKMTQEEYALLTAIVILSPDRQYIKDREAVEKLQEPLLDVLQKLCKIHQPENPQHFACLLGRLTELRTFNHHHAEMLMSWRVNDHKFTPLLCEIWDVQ
T1 sequence (Q15788 676-700 partner limits assumed): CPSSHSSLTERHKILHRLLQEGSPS
Procedure: Experimental procedures: FXR (GST-labeled recombinant human FXR protein, manufacturer: Invitroren, Item number: PV4835) and SRC-1 (steroid receptor co-activator-1) are thawed on ice. Three solutions of ABC are prepared by a buffer solution, solution A, 0.4 n M FXR and 30 nM SRC-1; solution B, 10 ug/ml Acceptor Beads; solution C, 10 ug/ml Donor Beads. Solution A is added to the plate at 15 uL per well. It is incubated at room temperature for 1 hour. Solution B is added to the plate at 7.5 uL per well. It is incubated at room temperature for 1 hour. Solution C is added to the plate at 7.5 uL per well. It is incubated at room temperature for 1 hour. It is read from the microplate reader Envision. The data are curve fitted by using Prism 5.0 to calculate the EC50.

in vitro = conditions: human; for Papp A→B: Caco-2, Papp A-B; for recovery: Caco-2, Recovery rate A-B
Procedure: The bi-directional transport of target compounds from apical side (AP) to basolateral side (BL) and from BL side to AP side is studied by using human colon adenocarcinoma cell line Caco-2 monolayer model. The transport parameters, apparent permeability coefficient (Papp) and efflux ratio are calculated by quantitative analysis with high performance liquid chromatography (HPLC).

[2] = test system: C57/BL6 mice fed MCD diet; assay: Pharmacodynamic test in methionine-choline deficient diet (MCD) model of non-alcoholic fatty liver disease; type: in vivo; conditions: MCD mice, obeticholic acid 40 mpk
Procedure: Animal strain: C57/BL6, Animal Grade: SPF Grade, Gender: male, Animal Age: 8 weeks old, Animals Received Date: 2018 Sep. 28, Animal Source: Shanghai Lingchang Biotechnology Co. Ltd., Animal Certificate No: SCXK (Shanghai)2013-0018 2013001836799, Mouse feeding Environment: temperature 20-26° C., humidity 40-70%, 12 hour day and night cycle.
5% Solutol HS15/Normal saline: after Solutol HS15 (polyethylene glycol 15 hydroxystearate solubilizer) is dissolved in a water bath at 37° C., 5 ml of it is dissolved in 100 ml of normal saline, thoroughly stirred for later use.
Obeticholic acid/5% Solutol HS15/Normal saline: 0.15 ml Solutol HS15 is added to accurately weighed 12 mg obeticholic acid to fully dissolve it, and 2.85 ml normal saline is added, vigorously mixed and dissolved by the ultrasound. • TM-01 Group/5% Solutol HS15/Normal saline: 2.5 ml of 6 mg/ml TM-01 suspension is taken, 2.5 ml of 5% Solutol HS15/normal saline is added, and the mixture is mixed well. • TM-02 Group/5% Solutol HS15/Normal saline: 2.5 ml of 6 mg/ml TM-02 suspension is taken, 2.5 ml of 5% Solutol HS15/normal saline is added, and the mixture is mixed well. • TM-06 Group/5% Solutol HS15/Normal saline: 2.5 ml of 6 mg/ml TM-06 suspension is taken, 2.5 ml of 5% Solutol HS15/Normal saline is added, and the mixture is mixed well. • TM-09 Group/5% Solutol HS15/Normal saline: 2.5 ml of 6 mg/ml TM-09 suspension is taken, 2.5 ml of 5% Solutol HS15/Normal saline is added, and the mixture is mixed well.
Menstruum and test compounds are administered by gavage at a dose volume of 10 ml/kg;
After reaching the animal house, 70 8-week-old C57/BL6 mice are fed adaptively and randomly divided into 7 groups according to body weight after the average body weight reaches 23 g. They are given the model feed. The first group receives the control diet MCS and the remaining groups receive the MCD diet, while each group of mice receives compound treatment as follows: • Group 1. Control Group: MCS, menstruum, administered once daily by gavage; • Group 2. Model Group: MCD, menstruum, administered once daily by gavage; • Group 3. Obeticholic acid group: MCD, 40 mpk obeticholic acid, administered once daily by gavage; • Group 4. TM-01 Group: MCD, 30 mpk TM-01, administered once daily by gavage; • Group 5. TM-02 Group: MCD, 30 mpk TM-02, administered once daily by gavage; • Group 6. TM-06 Group: MCD, 30 mpk TM-06, administered once daily by gavage; • Group 7. TM-09 Group: MCD, 30 mpk TM-09, administered once daily by gavage; 2.4 Experimental Methods
Body weight and food intake are measured weekly during the experiment. Twenty-one days after administration, tail tips are bled with microcapillaries for AST, ALT measurements. Twenty-eight days after administration, mice are terminated, hearts are bled, and liver tissues are collected and weighed. One portion is snap frozen with liquid nitrogen for subsequent analysis and the other portion are fixed for pathological analysis.
Mouse blood is centrifuged at 5000 rpm for 10 minutes and supernatants are collected for determination of TG (triglycerides), TC (total cholesterol), HDL (high density lipoprotein), LDL (low density lipoprotein), AST (aspartate aminotransferase) and ALT (alanine aminotransferase).
AST and ALT after administration for three and four weeks are determined according to the instructions of kit. The blood lipid index 4 weeks after administration is sent to Adicon Medical Laboratory Co. Ltd. for detection.
The livers are removed from −80° C., homogenized in PBS (phosphate buffered saline), extracted with chloroform methanol organic phase, and subjected to TC and TG assays using the kit, normalized for protein content.
Four weeks after administration, the mice are anesthetized. The heart is bled, the liver is isolated and weighed. The right lobe is snapfrozen with liquid nitrogen and stored at −80° C. for liver lipid analysis. The left lobe is isolated and fixed in 10% formalin for subsequent HE and Sirius Red staining. […]

[3] = blood, 3 weeks, TM 30 mpk, gavage
[4] = blood, 4 weeks, TM 30 mpk, gavage
[5] = blood, after 4 weeks, TM 30 mpk
[6] = liver, after 4 weeks, TM 30 mpk

Compound: O=C(O)c1cccc(N2CC(O)(c3ccc(OCc4c(-c5c(Cl)cccc5Cl)noc4C4CC4)cc3Cl)C2)c1 [Compound M2, reference compound]
EC50 [1]: 1.8 µM | FXR agonistic activity at protein level (in words) [1]: less active than the compounds of the present invention

Compound: COCCc1ccc(OCC(O)CNC(C)C)cc1 (centres unmarked) [Metoprolol, reference compound]
Papp A→B (in vitro): 18.1 ×10⁻⁶ cm/s | Papp A→B (in vitro; Average): 18.1 ×10⁻⁶ cm/s | Papp A→B (in vitro; Sample-01): 19.5 ×10⁻⁶ cm/s | Papp A→B (in vitro; Sample-02): 16.8 ×10⁻⁶ cm/s | recovery (in vitro; Average): 93.8% | recovery (in vitro; Sample-01): 93.2% | recovery (in vitro; Sample-02): 94.3%

Compound: CC[C@H]1[C@@H](O)[C@@H]2[C@H](CC[C@]3(C)[C@@H]([C@H](C)CCC(=O)O)CC[C@@H]23)[C@@]2(C)CC[C@@H](O)C[C@@H]12 [obeticholic acid, reference compound]
Weight, 0 week ([2]; 0 week, TM compounds 30 mpk, once daily by gavage): 23.72 ± 0.46 g | Food intake, 1 week ([2]; 1 week, TM 30 mpk, gavage): 2.992 ± 0.396 g | Weight, 1 week ([2]; 1 week, TM compounds 30 mpk, once daily by gavage): 21.28 ± 0.42 g | Food intake, 2 weeks ([2]; 2 weeks, TM 30 mpk, gavage): 2.945 ± 0.315 g | Weight, 2 weeks ([2]; 2 weeks, TM compounds 30 mpk, once daily by gavage): 18.97 ± 0.41 g | Food intake, 3 weeks ([2]; 3 weeks, TM 30 mpk, gavage): 2.092 ± 0.320 g | Weight, 3 weeks ([2]; 3 weeks, TM compounds 30 mpk, once daily by gavage): 17.60 ± 0.35 g | Food intake, 4 weeks ([2]; 4 weeks, TM 30 mpk, gavage): 2.073 ± 0.031 g | Weight, 4 week ([2]; 4 weeks, TM compounds 30 mpk, once daily by gavage): 15.72 ± 0.35 g | liver weight ([2]; after 4 weeks, TM 30 mpk): 0.90 ± 0.03 g | liver/body weight ([2]; after 4 weeks, TM 30 mpk): 5.76 ± 0.26 % | ALT, 3 weeks [2, 3]: 323.00 ± 37.79 U/L | AST, 3 weeks [2, 3]: 197.24 ± 21.54 U/L | ALT, 4 weeks [2, 4]: 93.37 ± 10.36 U/L | AST, 4 weeks [2, 4]: 126.59 ± 20.25 U/L | HDL (blood lipid) [2, 5]: 0.55 ± 0.01 mmol/L | LDL (blood lipid) [2, 5]: 2.80 ± 0.03 mmol/L | TC (blood lipid) [2, 5]: 0.86 ± 0.04 mmol/L | TG (blood lipid) [2, 5]: 0.56 ± 0.02 mmol/L | HE score ([2]; liver pathology score (Table 12 criteria), 4 weeks, TM 30 mpk): 2.6 | Sirius red staining area ([2]; liver, 4 weeks, TM 30 mpk): 0.344 ± 0.057% | liver TC [2, 6]: 35.7 ± 3.38 µmol/g protein | liver TG [2, 6]: 298 ± 36.2 µmol/g protein

Compound: CC(C)(C)NCC(O)COc1cccc2c1CC(O)C(O)C2 (centres unmarked) [Nadolol, reference compound]
Papp A→B (in vitro): 0.07 ×10⁻⁶ cm/s | Papp A→B (in vitro; Average): 0.07 ×10⁻⁶ cm/s | Papp A→B (in vitro; Sample-01): 0.07 ×10⁻⁶ cm/s | Papp A→B (in vitro; Sample-02): 0.06 ×10⁻⁶ cm/s | recovery (in vitro; Average): 89.8% | recovery (in vitro; Sample-01): 91.5% | recovery (in vitro; Sample-02): 88%

More lines, now with the values ahead:

EC50 [1]: 1.35 µM
Compound: CS(=O)(=O)c1cccc(C2CC(O)(c3cnc(OCc4c(-c5c(Cl)cccc5Cl)noc4C4CC4)cn3)C2)c1 (centres unmarked) [TM-04, 1-(5-((5-cyclopropyl-3-(2,6-dichlorophenyl)isoxazol-4-yl)methoxy)pyrazine-2-yl)-3-(3-(methylsulfonyl)phenyl) cyclobutanol]

EC50 [1]: 0.24 µM
Compound: OC1(c2cnc(OCc3c(-c4c(Cl)cccc4Cl)noc3C3CC3)cn2)CC(c2cccc(Br)c2)C1 (centres unmarked) [TM-03, 3-(3-bromophenyl)-1-(5-((5-cyclopropyl-3-(2,6-dichlorophenyl)isoxazol-4-yl)methoxy)pyrazine-2-yl) cyclobutanol]

EC50 [1]: 5.66 µM | FXR agonistic activity at protein level (in words) [1]: poor activity
Compound: Cc1cc(C(=O)O)cc(C2CC(O)(c3cnc(OCc4c(-c5c(Cl)cccc5Cl)noc4-c4ccccc4)cn3)C2)c1 (centres unmarked) [TM-10, 3-(3-(5-((3-(2,6-dichlorophenyl)-5-phenylisoxazol-4-yl)methoxy)pyrazine-2-yl)-3-hydroxycyclobutyl)-5-methyl benzoic acid]

EC50 [1]: 4.21 µM | FXR agonistic activity at protein level (in words) [1]: poor activity
Compound: O=C(O)c1cccc(C2CC(O)(c3cnc(OCc4c(-c5c(Cl)cccc5Cl)noc4-c4ccccc4)cn3)C2)c1 (centres unmarked) [TM-07, 3-(3-(5-(5-phenyl-3-(2,6-dichlorophenyl)isoxazole-4-ylmethoxy)-2-pyrazine)-1-hydroxycyclobutane) benzoic acid]

EC50 [1]: 5.01 µM | FXR agonistic activity at protein level (in words) [1]: poor activity
Compound: OC1(c2cnc(OCc3c(-c4c(Cl)cccc4Cl)noc3C3CC3)cn2)CC(c2cccc(Sc3ccccc3)c2)C1 (centres unmarked) [TM-05, 1-(5-((5-cyclopropyl-3-(2,6-dichlorophenyl)isoxazol-4-yl)methoxy)pyrazine-2-yl)-3-(3-(phenylthio)phenyl) cyclobutanol]
